Test results published in patent US11707511B2, “Vaccine compositions and methods of using the same” (The Board of Supervisors of Louisiana State University and …, priority 2017, dated 2023).
“Also recorded” adds a separate entry of the source.

Legend:
HLA-DR types = settings: of the most common HLA-DR types tested to date; cited from earlier work
C. albicans 3153A = assay: Amp B - antibody combination therapy of mice with disseminated candidiasis; assay type: in vivo, Candida albicans; settings: BALB/c mice, Amp B 0.5 mg/kg
Method: Mice were then given by i.v. of 5×10e5 of C. albicans 3153A yeast cells, 8 hour later the mice received i.p. 0.5 mg Amp B/kg body weight with each mAb (E2-9, M2-4, 2D5F7 and 2B10C1). Mice without any treatment and mice treated with antifungal drug alone were used as controls. Survival curves were scored and MST were measured.

[1] = when incorporated into several peptide antigens; average; cited from earlier work

AKFVAAWTLKAAA [PADRE]
HLA-DR types bound with high or intermediate affinity (HLA-DR types): 15 of 16

C[C@@H]1[C@H](O)[C@@H](C)/C=C/C=C/C=C/C=C/C=C/C=C/C=C/[C@H](O[C@@H]2O[C@H](C)[C@@H](O)[C@H](N)[C@@H]2O)C[C@@H]2O[C@](O)(C[C@@H](O)C[C@@H](O)[C@H](O)CC[C@@H](O)C[C@@H](O)CC(=O)O[C@H]1C)C[C@H](O)[C@H]2C(=O)O [Amp B, amphotericin B]
therapeutic effect / survival time (C. albicans 3153A; treatment 8 hours post-infection, in words): the same susceptible to the disease as mice that received no Amp B; also recorded: no therapeutic effect | MST (mean survival times) (C. albicans 3153A; Table 16, 5×10e5 C. albicans 3153A i.v., treatment i.p. 8 hours post-infection): 14.5 ± 3.7 days

RGD
enhancement of antibody titers [1]: 10 times
